# Results published in patent US20250041272A1, “COMPOSITIONS AND METHODS FOR TREATING CANCER VIA PTP1B INHIBITION” (priority 2021, published 2025).
# Target: T1, ternary complex of PTP1b with Mer and Stat1 (Mus musculus, UniProt P35821)
# T1 construct: endogenous in cells; host or cells: Primary peritoneal macrophages from C57BL/6J mice, stimulated with IFNγ and LPS and co-cultured with B16F10 melanoma cells
# T1 sequence (P35821 1-432): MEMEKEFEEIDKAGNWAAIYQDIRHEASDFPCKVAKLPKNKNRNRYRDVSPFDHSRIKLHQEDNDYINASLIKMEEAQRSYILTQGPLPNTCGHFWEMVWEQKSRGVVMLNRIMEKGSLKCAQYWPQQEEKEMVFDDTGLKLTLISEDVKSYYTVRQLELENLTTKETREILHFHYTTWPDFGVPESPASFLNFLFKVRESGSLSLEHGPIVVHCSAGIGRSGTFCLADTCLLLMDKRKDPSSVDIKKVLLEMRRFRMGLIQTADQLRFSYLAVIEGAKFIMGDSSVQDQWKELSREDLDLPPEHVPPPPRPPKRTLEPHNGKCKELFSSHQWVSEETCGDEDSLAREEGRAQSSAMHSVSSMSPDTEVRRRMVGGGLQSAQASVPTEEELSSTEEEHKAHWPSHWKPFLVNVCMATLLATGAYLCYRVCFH
# Assay: Co-immunoprecipitation of PTP1b or Stat1 from macrophages co-cultured with B16F10 cells
# Assay type: cell-based
# Method: Coimmunoprecipitation and Western blot. Coimmunoprecipitation was performed using […] A/G agarose beads (Santa Cruz Biotechnology Inc.) and antibodies for PTP1b (Abcam) or STAT1 (Cell signaling). Samples were incubated for 3 days at 4° C. under rotation and washed three times with RIPA buffer before loading them in 10% Mini-PROTEAN TGX stain-free gels (Biorad). After running the electrophoresis in the Mini-PROTEAN Tetra System (Bio-Rad) proteins were transferred to a 0.2-μm nitrocellulose Trans-Blot Mini Turbo Transfer Pack (Bio-Rad) using a Trans-Blot Turbo Transfer System (Bio-Rad). Membranes were blocked with 5% BSA (Fisher scientific) for 1 hour and blotted with antibodies against MyD88 (Cell Signaling), total STAT1 (Cell Signaling), tyrosine 701 phosphorylated STAT1 (Cell signaling), serine 727 phosphorylated STAT1 (Cell signaling), PTP1 b (Abcam) and Mer (Thermo Fisher scientific). Detection was performed with the ECL HPR-linked anti-rabbit antibody (Cell signaling) and the Clarity-Max Western ECL substrate (Bio-Rad). Blots were imaging with ChemiDoc MP Imaging System (Bio-Rad) and quantitated using ImageJ software (NIH).
# [1] = co-immunoprecipitation of Stat1, 24 hours
substance,measurement,setting,value
BVT948,association of PTP1b with Mer and Stat1,"co-immunoprecipitation of PTP1b, in the presence of B16F10 cells",reduced the association
same,Stat1 S727 phosphorylation,[1],restoration of Stat1 S727 phosphorylation
same,ternary complex formation,[1],reduced ternary complex formation
